Test system: multispecies biofilms
Experiment: Follow-up observation of pH of washes of a laboratory model of multispecies biofilms in 10% sucrose
Assay type: cell-based
Details: for Value of pH decrease within 30 min. of measurement (%): compared to the initial value
Protocol: Example No. 3. Follow-up observation of pH of washes of a laboratory model of multispecies biofilms.
To perform this test, it was necessary to obtain multispecies biofilms of bacteria. A 72-well, round-bottom, polystyrene plate for titration was used as an adhesive surface for growing multispecies biofilms. The inner surface was processed with a round abrasive drill bit, with visual inspection of the procedure. Then the plate was washed and immersed into isopropyl alcohol for 10 min. followed by 3-fold washing in distilled water.
Saliva was collected in the fasting state by spitting into a sterile centrifuge tube. Saliva was used to prepare inoculum with the following composition: 96.5 ml of saliva, 1 ml of 10% sucrose, 3.5 ml of S.mutans suspension 0.8 units of McF.
To obtain biofilms, the prepared inoculum was poured 1 ml into all wells of the prepared plate, after which the wells were covered with a similar plate and sealed with parafilm film. The plate was placed on a shaker pad with variable surface slope placed in a CO2 incubator and incubated overnight (16 hours). The contents of the wells were then extracted with an aspirator by dipping the plastic tip into the center of the well until completely drained. 1 ml of soy-casein broth was added to all wells of the plate with an automatic pipette. The plate was placed into the incubator. The described cycle was repeated for four days.
Biofilm formation was monitored visually by gram staining. After four days, the contents of the wells were extracted with an aspirator. All 6 wells of the first row were filled with 1 ml of deionized water and left for 5 min. Water was extracted with an aspirator; 1 ml of the test drug was added into the wells, in 1 min. the drug was removed, the wells were filled for 1 min. with deionized water, then it was removed. 250 µl of 10% sucrose solution was added to the wells. The formed biofilms were scraped off with a disposable loop (10µl); the suspension of two neighboring wells was combined and transferred to three Eppendorfs. Sample combination allowed increasing the volume of the analyzed suspension sample up to 0.5 ml, which in turn allowed carrying out pH measurements in free volume with the necessary reserve at high density of biofilm culture of microorganisms and optimal time for the sample measurement procedure (20 sec.). After combination of the samples, pH was immediately measured. The measurement time points were 0, 1, 2, 3, 4, 5, 6, 6, 7, 8, 9, 10, 15,20,30 min. The results of pH changes in multispecies dental biofilms in the presence of sucrose under the influence of active ingredients are shown in Figure 3 and Tables 3-4. Table 3. Results of pH measurements of mechanically disrupted multispecies biofilms in 10% sucrose solution, follow-up (10% sucrose solution pH-6.98).

## NC(N)=O [Urea, reference compound]
Urea 0.5%, 0 min
  pH of mechanically disrupted multispecies biofilms: 6.4±0.006
Urea 0.5%, 1 min
  pH of mechanically disrupted multispecies biofilms: 6.4±0.006
Urea 0.5%, 1 min vs previous time point
  pH change (in brackets), multispecies biofilms: 0
Urea 0.5%, 2 min
  pH of mechanically disrupted multispecies biofilms: 6.4±0.006
Urea 0.5%, 2 min vs previous time point
  pH change (in brackets), multispecies biofilms: 0
Urea 0.5%, 3 min
  pH of mechanically disrupted multispecies biofilms: 6.4±0.006
Urea 0.5%, 3 min vs previous time point
  pH change (in brackets), multispecies biofilms: 0
Urea 0.5%, 4 min
  pH of mechanically disrupted multispecies biofilms: 6.41±0.006
Urea 0.5%, 4 min vs previous time point
  pH change (in brackets), multispecies biofilms: +0.01
Urea 0.5%, 5 min
  pH of mechanically disrupted multispecies biofilms: 6.42±0.006
Urea 0.5%, 5 min vs previous time point
  pH change (in brackets), multispecies biofilms: +0.01
Urea 0.5%, 6 min
  pH of mechanically disrupted multispecies biofilms: 6.44±0.006
Urea 0.5%, 6 min vs previous time point
  pH change (in brackets), multispecies biofilms: +0.02
Urea 0.5%, 7 min
  pH of mechanically disrupted multispecies biofilms: 6.45±0.006
Urea 0.5%, 7 min vs previous time point
  pH change (in brackets), multispecies biofilms: +0.01
Urea 0.5%, 8 min
  pH of mechanically disrupted multispecies biofilms: 6.43±0.02
Urea 0.5%, 8 min vs previous time point
  pH change (in brackets), multispecies biofilms: -0.02
Urea 0.5%, 9 min
  pH of mechanically disrupted multispecies biofilms: 6.43±0.0
Urea 0.5%, 9 min vs previous time point
  pH change (in brackets), multispecies biofilms: 0
Urea 0.5%, 10 min
  pH of mechanically disrupted multispecies biofilms: 6.42±0.0
Urea 0.5%, 10 min vs previous time point
  pH change (in brackets), multispecies biofilms: -0.01
Urea 0.5%, 15 min
  pH of mechanically disrupted multispecies biofilms: 6.25±0.01
Urea 0.5%, 15 min vs previous time point
  pH change (in brackets), multispecies biofilms: -0.17
Urea 0.5%, 20 min
  pH of mechanically disrupted multispecies biofilms: 6.18±0.02
Urea 0.5%, 20 min vs previous time point
  pH change (in brackets), multispecies biofilms: -0.07
Urea 0.5%, 30 min
  pH of mechanically disrupted multispecies biofilms: 5.97±0.02
Urea 0.5%, 30 min vs previous time point
  pH change (in brackets), multispecies biofilms: -0.21
Urea 0.5%
  Value of pH decrease within 30 min. of measurement (%): -6.7%

## Nisin
Nisin 0.004%, 0 min
  pH of mechanically disrupted multispecies biofilms: 6.32±0.006
Nisin 0.004%, 1 min
  pH of mechanically disrupted multispecies biofilms: 6.3±0.006
Nisin 0.004%, 1 min vs previous time point
  pH change (in brackets), multispecies biofilms: -0.02
Nisin 0.004%, 2 min
  pH of mechanically disrupted multispecies biofilms: 6.28±0.0
Nisin 0.004%, 2 min vs previous time point
  pH change (in brackets), multispecies biofilms: -0.02
Nisin 0.004%, 3 min
  pH of mechanically disrupted multispecies biofilms: 6.26±0.006
Nisin 0.004%, 3 min vs previous time point
  pH change (in brackets), multispecies biofilms: -0.02
Nisin 0.004%, 4 min
  pH of mechanically disrupted multispecies biofilms: 6.24±0.01
Nisin 0.004%, 4 min vs previous time point
  pH change (in brackets), multispecies biofilms: -0.02
Nisin 0.004%, 5 min
  pH of mechanically disrupted multispecies biofilms: 6.22±0.006
Nisin 0.004%, 5 min vs previous time point
  pH change (in brackets), multispecies biofilms: -0.02
Nisin 0.004%, 6 min
  pH of mechanically disrupted multispecies biofilms: 6.2±0.0
Nisin 0.004%, 6 min vs previous time point
  pH change (in brackets), multispecies biofilms: -0.02
Nisin 0.004%, 7 min
  pH of mechanically disrupted multispecies biofilms: 6.2±0.006
Nisin 0.004%, 7 min vs previous time point
  pH change (in brackets), multispecies biofilms: 0
Nisin 0.004%, 8 min
  pH of mechanically disrupted multispecies biofilms: 6.19±0.0
Nisin 0.004%, 8 min vs previous time point
  pH change (in brackets), multispecies biofilms: -0.01
Nisin 0.004%, 9 min
  pH of mechanically disrupted multispecies biofilms: 6.19±0.006
Nisin 0.004%, 9 min vs previous time point
  pH change (in brackets), multispecies biofilms: 0
Nisin 0.004%, 10 min
  pH of mechanically disrupted multispecies biofilms: 6.18±0.0
Nisin 0.004%, 10 min vs previous time point
  pH change (in brackets), multispecies biofilms: -0.01
Nisin 0.004%, 15 min
  pH of mechanically disrupted multispecies biofilms: 6.12±0.006
Nisin 0.004%, 15 min vs previous time point
  pH change (in brackets), multispecies biofilms: -0.06
Nisin 0.004%, 20 min
  pH of mechanically disrupted multispecies biofilms: 6.11±0.0
Nisin 0.004%, 20 min vs previous time point
  pH change (in brackets), multispecies biofilms: -0.01
Nisin 0.004%, 30 min
  pH of mechanically disrupted multispecies biofilms: 6.07±0.006
Nisin 0.004%, 30 min vs previous time point
  pH change (in brackets), multispecies biofilms: -0.04
Nisin 0.004%
  Value of pH decrease within 30 min. of measurement (%): -3.95%
Nisin 0.008%
  Value of pH decrease within 30 min. of measurement (%): -8.7%
Nisin 0,008%, 0 min
  pH of mechanically disrupted multispecies biofilms: 6.54±0.006
Nisin 0,008%, 1 min
  pH of mechanically disrupted multispecies biofilms: 6.45±0.006
Nisin 0,008%, 1 min vs previous time point
  pH change (in brackets), multispecies biofilms: -0.09
Nisin 0,008%, 2 min
  pH of mechanically disrupted multispecies biofilms: 6.4±0.006
Nisin 0,008%, 2 min vs previous time point
  pH change (in brackets), multispecies biofilms: -0.05
Nisin 0,008%, 3 min
  pH of mechanically disrupted multispecies biofilms: 6.35±0.006
Nisin 0,008%, 3 min vs previous time point
  pH change (in brackets), multispecies biofilms: -0.05
Nisin 0,008%, 4 min
  pH of mechanically disrupted multispecies biofilms: 6.3±0.006
Nisin 0,008%, 4 min vs previous time point
  pH change (in brackets), multispecies biofilms: -0.05
Nisin 0,008%, 5 min
  pH of mechanically disrupted multispecies biofilms: 6.22±0.01
Nisin 0,008%, 5 min vs previous time point
  pH change (in brackets), multispecies biofilms: -0.08
Nisin 0,008%, 6 min
  pH of mechanically disrupted multispecies biofilms: 6.16±0.006
Nisin 0,008%, 6 min vs previous time point
  pH change (in brackets), multispecies biofilms: -0.06
Nisin 0,008%, 7 min
  pH of mechanically disrupted multispecies biofilms: 6.1±0.01
Nisin 0,008%, 7 min vs previous time point
  pH change (in brackets), multispecies biofilms: -0.06
Nisin 0,008%, 8 min
  pH of mechanically disrupted multispecies biofilms: 6.0±0.02
Nisin 0,008%, 8 min vs previous time point
  pH change (in brackets), multispecies biofilms: -0.1
Nisin 0,008%, 9 min
  pH of mechanically disrupted multispecies biofilms: 5.99±0.006
Nisin 0,008%, 9 min vs previous time point
  pH change (in brackets), multispecies biofilms: -0.01
Nisin 0,008%, 10 min
  pH of mechanically disrupted multispecies biofilms: 5.98±0.0
Nisin 0,008%, 10 min vs previous time point
  pH change (in brackets), multispecies biofilms: -0.01
Nisin 0,008%, 15 min
  pH of mechanically disrupted multispecies biofilms: 5.97±0.006
Nisin 0,008%, 15 min vs previous time point
  pH change (in brackets), multispecies biofilms: -0.01
Nisin 0,008%, 20 min
  pH of mechanically disrupted multispecies biofilms: 5.96±0.006
Nisin 0,008%, 20 min vs previous time point
  pH change (in brackets), multispecies biofilms: -0.01
Nisin 0,008%, 30 min
  pH of mechanically disrupted multispecies biofilms: 5.97±0.006
Nisin 0,008%, 30 min vs previous time point
  pH change (in brackets), multispecies biofilms: +0.01
Nisin 0.004 and 0.008%
  effect on the value of acidity in the multispecies biofilm affected by sucrose: stabilizing effect

— patent EP4640206A1, “NISIN FOR INHIBITING BIOFILMS” (SkyLab AG, priority 2024, dated 2025)
